We go through three compounds from patent publication US11597708B2, “Inhibitors of heat shock factors and uses thereof” (HSF Pharmaceuticals SA, priority 2016, dated 2023).

As a reminder, the inhibition is the change of the read-out against control, counted positive when it falls. Broadly, the IC50 is the midpoint of a concentration-inhibition curve. A high value points to a need for much substance.

The structures appear in SMILES notation. Where two headings read alike, the source gives them in different places.

The target in one data set is T1, HSF1 (Homo sapiens, UniProt Q00613).
T1 construct: functionally linked to an hsp70b promoter and therefore controlled by endogenous HSF1; endogenous in cells; host or cells: HeLa cells / HeLa-derived cell line Z74
T1 sequence (Q00613 1-529): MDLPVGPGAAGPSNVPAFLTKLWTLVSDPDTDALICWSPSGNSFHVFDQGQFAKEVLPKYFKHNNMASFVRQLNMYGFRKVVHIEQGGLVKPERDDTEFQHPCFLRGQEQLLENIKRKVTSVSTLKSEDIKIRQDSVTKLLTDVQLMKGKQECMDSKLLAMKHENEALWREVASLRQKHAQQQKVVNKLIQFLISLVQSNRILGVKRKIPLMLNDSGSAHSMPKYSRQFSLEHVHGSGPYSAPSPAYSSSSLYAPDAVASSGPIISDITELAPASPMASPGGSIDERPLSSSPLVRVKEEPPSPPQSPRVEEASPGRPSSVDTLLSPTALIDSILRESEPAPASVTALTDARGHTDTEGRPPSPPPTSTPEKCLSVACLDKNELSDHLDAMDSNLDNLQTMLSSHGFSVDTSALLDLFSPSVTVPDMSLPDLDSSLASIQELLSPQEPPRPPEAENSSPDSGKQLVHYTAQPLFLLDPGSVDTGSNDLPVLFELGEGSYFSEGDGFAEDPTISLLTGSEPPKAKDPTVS
The data set is described as follows: Z74 cell-based reporter assay: heat-induced RLuc expression controlled by endogenous HSF1. As to conditions: for IC50: inhibition of HSF1 activity [RLuc]; for inhibition at 12.5 µM: 12.5 μM IHSF, negative values marked *: compound enhanced rLuc activity, read-out: Inhibition of HSF1 activity at 12.5 μM IHSF [RLuc] (%). Summed up:
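HeLa-derived Z74 cells carry LexA-HSF1-driven firefly luciferase and hsp70b promoter-driven Renilla luciferase, the latter under endogenous HSF1. Cells were treated with compound at 12.5 or 25 μM for 2 h, heated to 43.0 °C for 30 min, then kept 6 h at 37 °C. Both luciferases were read by dual-luciferase luminescence.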

A short description of data set [1]: Aqueous solubility (statement). It counts as physicochemical.
The next data set relates to hspa1a. The data set is described as follows: Reverse transcription real-time PCR of hspa1a mRNA in Z74 cells. It counts as cell-based, human. As to conditions: heat-treated, somewhat less sensitive than rluc gene. On the procedure: (§1) FIG. 4. (A) rluc, hspa7 and hspa1a mRNA levels in Z74 cells mock-exposed (−) or exposed to the indicated concentrations of compounds 058 or 115 for 2 hours, heat-treated (HS) at 43° C. for 30 min and post-incubated for one hour at 37° C. mRNA levels were quantified by reverse transcription-real-time PCR. (B) HSP72 levels in HeLa cells mock-exposed (−) or exposed to the indicated concentrations of compounds 058 or 115 for 2 hours, heat-treated (HS) at 43° C. for 30 min and post-incubated for 6 hours at 37° C. HSP72 levels were estimated by HSP72 WB. GAPDH levels served as “loading controls”.
(§2) To assess the transcriptional effects of the IHSF, cultures of Z74 cells were exposed for two hours to IHSF 058 or IHSF 115 at different concentrations, or to vehicle. Following heat treatment and a one-hour post-incubation at 37° C., extracts were prepared, and polyadenylated rluc, hsp70b (hspa7) and hspa1a RNA was quantified by reverse transcription and real-time PCR. […] IHSF 115 had somewhat more important effects than IHSF 058. […] We tend to discount the possibility that the latter data report effects on transcript stability.
(In general: Real-time PCR tracks product formation cycle by cycle.)

A further data set concerns inducible Hsp70 (HSP72). The experiment in a line: HSP72 western blot in heat-treated HeLa cells. It counts as cell-based, human. On the procedure: as §1
On the technique in general: In western blotting, separated proteins are transferred to a membrane and probed.

Data set [2] has as its system hsp70b/hspa7 promoter-driven rluc gene. The data set is described as follows: Reverse transcription real-time PCR of rluc mRNA in Z74 cells. It counts as cell-based, human. As to conditions: for rluc mRNA levels at 1 μM: 1 μM concentrations of the IHSF; for transcript levels of the hsp70b/hspa7 promoter-driven rluc gene: 2 h exposure at different concentrations, heat treatment, 1 h post-incubation at 37° C. The protocol: as §1, §2

Another data set relates to hspa7 (hsp70b). The data set is described as follows: Reverse transcription real-time PCR of hspa7 (hsp70b) mRNA in Z74 cells. As to conditions: heat-treated, somewhat less sensitive than rluc gene. It counts as cell-based, human. On the procedure: as §1, §2
The mark [3] stands for this setting: Z74 cells, 25 μM IHSF, 2 h exposure, 43° C. 30 min, 6 h at 37° C., read-out: Inhibition of HSF1 activity at 25 μM IHSF [RLuc] (%).

As to `CCOC(=O)/C=C/C(=O)Nc1nccs1` [IHSF 001, (E)-ethyl 4-oxo-4-(thiazol-2-ylamino)but-2-enoate], the inhibition at 25 µM was 66% at HSF1 (IHSF 001 tested at 25 μM, Experiment No. 1, read-out: Inhibition of HSF1 activity [RLuc] (%)); 69% at HSF1 (IHSF 001 tested at 25 μM, Experiment No. 2, read-out: Inhibition of HSF1 activity [RLuc] (%)); 69% on HSF1 (IHSF 001 tested at 25 μM, Experiment No. 3, read-out: Inhibition of HSF1 activity [RLuc] (%)); 67% on HSF1 (IHSF 001 tested at 25 μM, Experiment No. 4, read-out: Inhibition of HSF1 activity [RLuc] (%)); 68% at HSF1 (IHSF 001 tested at 25 μM, Experiment No. 5, read-out: Inhibition of HSF1 activity [RLuc] (%)); 63% at HSF1 (IHSF 001 tested at 25 μM, Experiment No. 6, read-out: Inhibition of HSF1 activity [RLuc] (%)). Further, the inhibition at 25 µM came to 56% at HSF1 (IHSF 001 tested at 25 μM, Experiment No. 7, read-out: Inhibition of HSF1 activity [RLuc] (%)); 51% on HSF1 (IHSF 001 tested at 25 μM, Experiment No. 8, read-out: Inhibition of HSF1 activity [RLuc] (%)); 45% at HSF1 (IHSF 001 tested at 25 μM, Experiment No. 9, read-out: Inhibition of HSF1 activity [RLuc] (%)); 64% at HSF1 (setting [3]). This compound also came in with an IC50 at HSF1 (Z74 cells) of 17.8 µM. For the same compound, on HSF1 (Z74 cells), the inhibition at 12.5 µM is 37%.
Regarding `CCOC(=O)/C=C/C(=O)Nc1ncc(-c2cccnc2)s1` [IHSF 058, (E)-3-(5-Pyridm-3-yl-thiazol-2-ylcarbamoyl)-acrylic acid ethyl ester], the aqueous solubility entry in data set [1] is “limited”. For the same compound, on HSF1 (Z74 cells), half-maximal inhibition (IC50) was put at 4.8 µM and the inhibition at 12.5 µM came out at 79%. Further, the inhibition at 25 µM at HSF1 (setting [3]) came to 97%. In the data set on hspa1a, the hspa1a transcript accumulation entry was “Dose-dependent inhibitory effects”. Also, the “heat-induced accumulation of inducible Hsp70 (WB), relative effectiveness” value in the data set on inducible Hsp70 (HSP72) was “less effective than IHSF 115”. In addition, in data set [2], the “rluc mRNA levels at 1 μM” value was “substantially reduced” and the “transcript levels of the hsp70b/hspa7 promoter-driven rluc gene” value was “dose-dependent reduction”. For the same compound, the “hspa7 (hsp70b) transcript accumulation” value in the data set with hspa7 (hsp70b) is “Dose-dependent inhibitory effects”.
For the compound `CN(C(=O)/C=C/C1=NCCCO1)c1ncc(-c2cccnc2)s1` [IHSF 115, (E)-3-(5,6-Dihydro-4H-[1,3]oxazin-2-yl)-N-methyl-N-(5-pyridin-3-yl-thiazol-2-yl)-acrylamide], the aqueous solubility result in data set [1] was “limited”. At HSF1 (Z74 cells), half-maximal inhibition (IC50) required 0.7 µM and the inhibition at 12.5 µM is 99%. The inhibition at 25 µM at HSF1 (setting [3]) came to 100%. Also, the “activity in the Z74-based screening assay” value at HSF1 (most potent IHSF) was “substantial activity in the high nanomolar range”. In the data set on hspa1a, the hspa1a transcript accumulation entry is given as “Dose-dependent inhibitory effects”. Also, the “heat-induced accumulation of inducible Hsp70 (WB)” value in the data set with inducible Hsp70 (HSP72) (3.125 μM) is listed as “detectable inhibitory effects”. In addition, the “heat-induced accumulation of inducible Hsp70 (WB)” value in the data set on inducible Hsp70 (HSP72) (6.25 μM) was “more substantial effects”. In data set [2], the “rluc mRNA levels at 1 μM” value was “substantially reduced” and the “transcript levels of the hsp70b/hspa7 promoter-driven rluc gene” value is given as “dose-dependent reduction”. For the same compound, the “hspa7 (hsp70b) transcript accumulation” value with hspa7 (hsp70b) is recorded as “Dose-dependent inhibitory effects”.
